Measured values taken from publication PMC10360995, “Discovery of 3-((3-amino-1H-indazol-4-yl)ethynyl)-N-(4-((4-ethylpiperazin-1-yl)methyl)-3-(trifluoromethyl)phenyl)benzamide (AKE-72), a potent Pan-BCR-ABL inhibitor including the T315I gatekeeper resistant mutant” (Journal of Enzyme Inhibition and Medicinal Chemistry, 2023).
Like-named read-outs stand apart in the source and are kept apart here.

Assays:
MOLT-4 = assay: NCI SRB anti-leukemic assay; settings: for GI50 / CC50: Homo sapiens; for GI50: MOLT-4, read-out: GI50 MOLT-4; for CC50: MOLT-4, read-out: LC50 (half-maximal lethal concentration) MOLT-4; for TGI (total growth inhibition) MOLT-4: five-dose assay
K-562 [1] = tested on: K-562; parameters: method as in PMID 32961435; settings: cited from earlier work
K-562 [2] = assay: NCI SRB anti-leukemic assay; settings: for GI50 / CC50: Homo sapiens; for GI50: K562, read-out: GI50 K-562; for CC50: K562, read-out: LC50 (half-maximal lethal concentration) K-562
HL-60(TB) [3] = assay: cells; settings: Homo sapiens; for GI50: HL-60, read-out: GI50 HL-60(TB); for CC50: HL-60, read-out: LC50 (half-maximal lethal concentration) HL-60(TB)
RPMI-8226 = assay: NCI SRB anti-leukemic assay; settings: for GI50 / CC50: Homo sapiens; for GI50: RPMI-8226, read-out: GI50 RPMI-8226; for CC50: RPMI-8226, read-out: LC50 (half-maximal lethal concentration) RPMI-8226; for TGI (total growth inhibition) RPMI-8226: five-dose assay; for GI % RPMI-8226: single dose 10 µM
SR = assay: NCI SRB anti-leukemic assay; settings: for GI50 / CC50: Homo sapiens, SR; for GI50: read-out: GI50 SR; for CC50: read-out: LC50 (half-maximal lethal concentration) SR; for TGI (total growth inhibition) SR: five-dose assay
BCR-ABL^WT [4] = molecular target: T1, BCR-ABL^WT (Homo sapiens, UniProt P00519); settings: cited from earlier work
T1 sequence (P00519 whole entry): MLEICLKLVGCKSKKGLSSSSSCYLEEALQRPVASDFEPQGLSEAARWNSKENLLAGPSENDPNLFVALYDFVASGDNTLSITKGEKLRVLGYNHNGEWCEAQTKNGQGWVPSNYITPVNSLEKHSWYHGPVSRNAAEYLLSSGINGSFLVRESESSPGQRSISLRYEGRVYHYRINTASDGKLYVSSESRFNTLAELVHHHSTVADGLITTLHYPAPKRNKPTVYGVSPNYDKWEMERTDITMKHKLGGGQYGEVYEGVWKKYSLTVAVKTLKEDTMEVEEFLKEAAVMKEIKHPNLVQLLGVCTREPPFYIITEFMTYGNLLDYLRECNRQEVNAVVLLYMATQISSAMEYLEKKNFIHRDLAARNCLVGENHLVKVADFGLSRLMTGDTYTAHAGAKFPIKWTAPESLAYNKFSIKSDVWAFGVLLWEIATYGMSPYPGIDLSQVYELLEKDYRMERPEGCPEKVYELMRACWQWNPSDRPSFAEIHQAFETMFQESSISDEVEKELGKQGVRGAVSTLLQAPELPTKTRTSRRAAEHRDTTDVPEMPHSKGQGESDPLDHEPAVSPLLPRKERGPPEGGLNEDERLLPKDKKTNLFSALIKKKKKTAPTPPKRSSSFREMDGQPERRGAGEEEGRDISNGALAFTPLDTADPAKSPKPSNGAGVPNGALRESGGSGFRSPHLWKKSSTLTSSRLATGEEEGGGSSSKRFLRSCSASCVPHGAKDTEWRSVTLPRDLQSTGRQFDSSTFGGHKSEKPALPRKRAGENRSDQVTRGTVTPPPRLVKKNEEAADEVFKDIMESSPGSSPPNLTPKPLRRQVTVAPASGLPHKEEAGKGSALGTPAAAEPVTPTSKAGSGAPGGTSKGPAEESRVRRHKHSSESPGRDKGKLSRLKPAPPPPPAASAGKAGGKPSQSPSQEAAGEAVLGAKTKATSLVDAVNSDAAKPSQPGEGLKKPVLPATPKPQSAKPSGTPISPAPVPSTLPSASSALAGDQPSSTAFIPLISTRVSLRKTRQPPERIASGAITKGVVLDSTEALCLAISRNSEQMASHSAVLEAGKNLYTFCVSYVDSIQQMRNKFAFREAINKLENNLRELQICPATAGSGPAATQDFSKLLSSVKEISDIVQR

HL-60(TB) [5] = settings: for TGI (total growth inhibition) HL-60(TB): five-dose assay
CCRF-CEM = assay: NCI SRB anti-leukemic assay; settings: for GI50 / CC50: Homo sapiens, CCRF-CEM; for GI50: read-out: GI50 CCRF-CEM; for CC50: read-out: LC50 (half-maximal lethal concentration) CCRF-CEM; for TGI (total growth inhibition) CCRF-CEM: five-dose assay; for GI % CCRF-CEM: single dose 10 µM
BCR-ABL^WT [6] = molecular target: T1, BCR-ABL^WT; assay: BCR-ABL WT kinase inhibition assay; type: biochemical; settings: for IC50: 10-dose duplicate, 3-fold serial dilution, 10 µM ATP

Row | Compound | GI50 (MOLT-4) [nM] | CC50 (MOLT-4) [nM] | TGI (total growth inhibition) MOLT-4 (MOLT-4) [nM] | GI50 (K-562 [2]) [nM] | CC50 (K-562 [2]) [nM] | TGI (total growth inhibition) K-562 (K-562 [2]; five-dose assay) [nM] | GI50 (HL-60(TB) [3]) [nM] | CC50 (HL-60(TB) [3]) [nM] | GI50 (RPMI-8226) [nM] | CC50 (RPMI-8226) [nM] | TGI (total growth inhibition) RPMI-8226 (RPMI-8226) [nM] | GI % RPMI-8226 (RPMI-8226) | GI50 (SR) [nM] | CC50 (SR) [nM] | TGI (total growth inhibition) SR (SR) [nM] | TGI (total growth inhibition) HL-60(TB) (HL-60(TB) [5]) [nM] | GI50 (CCRF-CEM) [nM] | CC50 (CCRF-CEM) [nM] | TGI (total growth inhibition) CCRF-CEM (CCRF-CEM) [nM] | GI % CCRF-CEM (CCRF-CEM) | also measured
1 | Nc1n[nH]c2cccc(C#Cc3cccc(NC(=O)c4ccc(N5CCOCC5)c(C(F)(F)F)c4)c3)c12 [I, reference compound] | 1310 | > 100000 | 5710 | < 10 | > 100000 | 13500 | 1400 | > 100000 | 1980 | > 100000 | 6500 | L (lethal effect (% GI > 100)) | 2400 | > 100000 | >100000 | 10500 | 1360 | > 100000 | 6580 | 9.49% | GI % MOLT-4 (MOLT-4; single dose 10 µM): 92.33%; GI50 (K-562 [1]): < 10 nM; TGI K-562 (K-562 [2]; five-dose assay): 13500 nM; GI % K-562 (K-562 [2]; single dose 10 µM): 97.96%; GI % SR (SR; single dose 10 µM): 87.42%; IC50 (BCR-ABL^WT [4]): 4.6 ± 0.6 nM; GI % HL-60(TB) (HL-60(TB) [5]; single dose 10 µM): 99.01%
2 | CN1CCN(Cc2ccc(C(=O)Nc3cccc(C#Cc4cccc5[nH]nc(N)c45)c3)cc2C(F)(F)F)CC1 [Compound 4a] | 494 | 7570 | 2280 | < 10 | 6030 | 1020 | 278 | 7330 | 1220 | 9520 | 3260 | L (lethal effect (% GI > 100)) | 1100 | > 100000 | 3350 | 1600 | 1220 | 8300 | 3180 | L (lethal effect (% GI > 100)) | IC50 (BCR-ABL^WT [6]): < 0.51 nM; fold superior potency against BCR-ABL^WT versus lead indazole II (BCR-ABL^WT [6]; relative to II): > 300 folds
3 | CCN1CCN(Cc2ccc(C(=O)Nc3cccc(C#Cc4cccc5[nH]nc(N)c45)c3)cc2C(F)(F)F)CC1 [Compound 4b] | 1420 | – | 3570 | < 1000 | – | 1140 | 593 | – | 1590 | 9710 | 3920 | L (lethal effect (% GI > 100)) | 1780 | > 100000 | 4590 | 2610 | 1600 | 8160 | 3620 | 96.4% | IC50 (BCR-ABL^WT [6]): 0.64 ± 0.0099 nM
